In US20260356860A1, “2-SUBSTITUTED 3,4A,5,7,8,8A-HEXAHYDRO-4H-THIOPYRANO[4,3-DJPYRIMIDIN-4-ONES FOR WOUND TREATMENT” (priority 2022, published 2026):
pIC50: −log10 of the molar value.

Biological target: T1, Tankyrase 2 (TNKS2) (Homo sapiens, UniProt Q9H2K2)
T1 sequence (Q9H2K2 1-1166): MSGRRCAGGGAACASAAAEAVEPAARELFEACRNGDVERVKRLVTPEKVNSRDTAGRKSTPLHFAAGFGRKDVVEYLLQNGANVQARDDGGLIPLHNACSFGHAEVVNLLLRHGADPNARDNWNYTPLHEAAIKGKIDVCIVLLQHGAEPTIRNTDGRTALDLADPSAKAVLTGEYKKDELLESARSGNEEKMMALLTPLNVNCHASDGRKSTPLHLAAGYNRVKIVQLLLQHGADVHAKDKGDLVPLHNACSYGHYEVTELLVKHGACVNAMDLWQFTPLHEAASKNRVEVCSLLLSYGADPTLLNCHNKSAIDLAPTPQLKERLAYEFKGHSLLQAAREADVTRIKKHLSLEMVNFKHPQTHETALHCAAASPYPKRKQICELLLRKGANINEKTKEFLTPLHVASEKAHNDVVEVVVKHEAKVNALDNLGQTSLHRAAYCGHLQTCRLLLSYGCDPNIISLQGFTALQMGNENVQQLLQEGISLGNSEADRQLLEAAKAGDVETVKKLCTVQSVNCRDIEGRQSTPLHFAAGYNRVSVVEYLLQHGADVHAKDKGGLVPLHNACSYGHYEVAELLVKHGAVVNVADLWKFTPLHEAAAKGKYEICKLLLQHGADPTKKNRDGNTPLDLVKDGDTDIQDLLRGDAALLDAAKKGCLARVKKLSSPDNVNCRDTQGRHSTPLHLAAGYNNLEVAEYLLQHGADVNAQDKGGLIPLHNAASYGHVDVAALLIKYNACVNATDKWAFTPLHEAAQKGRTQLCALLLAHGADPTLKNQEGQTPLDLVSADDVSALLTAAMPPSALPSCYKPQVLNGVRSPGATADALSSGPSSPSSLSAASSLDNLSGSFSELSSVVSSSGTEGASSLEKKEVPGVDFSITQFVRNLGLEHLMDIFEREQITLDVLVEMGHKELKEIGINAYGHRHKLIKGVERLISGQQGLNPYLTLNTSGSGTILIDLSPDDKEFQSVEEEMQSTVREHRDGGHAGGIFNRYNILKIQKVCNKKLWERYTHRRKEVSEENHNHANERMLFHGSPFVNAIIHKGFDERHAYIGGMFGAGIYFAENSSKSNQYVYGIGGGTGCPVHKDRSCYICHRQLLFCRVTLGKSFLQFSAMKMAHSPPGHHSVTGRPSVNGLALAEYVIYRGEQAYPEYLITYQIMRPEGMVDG
Test: TNK2 Binding Assay (Tankyrase 2 ribosylation, chemiluminescence)
Format: biochemical
Experimental: Tankyrase 2 assay (n=3) was performed with the following steps: step 1, coating a 96-well plate with 50 μL/well of histone solution; step 2, conducting ribosylation reaction; and step 3, detection.
Step 1: Coating a 96-Well Plate with 50 μL/Well of Histone Solution.
A 5× histone mixture was diluted 1:5 with PBS to make a 1× histone in PBS mixture. 50 μL of the histone mixture was added to each well and incubated at 4° C. overnight. The plate was washed three times using 200 μL PBST buffer (1×PBS containing 0.05% Tween*20 (polysorbate 20) per well. The plate was tapped onto a clean paper towel to remove the liquid. The wells were blocked by adding 200 μL of blocking buffer 3 to each well. The plate was incubated at room temperature for at least 90 minutes. The plate was washed three times with 200 μL PBST buffer. The plate was tapped onto a clean paper towel to remove the liquid.
A fresh solution of 10 mM DTT in water was prepared.
A master mix was prepared and delivered to each well (25 μL/well). Master mix delivered to each well: (2.5 μL of 10×PARP assay buffer (purchased from BPS Bioscience)+2.5 μL of PARP substrate mixture 2+17.5 μL of water+2.5 μL of 10 mM fresh DTT). The concentration of DTT in the master mix was 1 mM. 25 μL of master mix was added to each well.
1×PARP buffer with DTT was prepared. 10×PARP assay buffer was diluted to 1×PARP assay buffer containing DTT by adding 1 volume of 10×PARP assay buffer+1 volume of 10 mM DTT+8 volumes of water. The concentration of DTT in the 1×PARP assay buffer was 1 mM.
5 μL of a test inhibitor was added to each well labeled as “Test Inhibitor.” For the “Positive Control,” the PARP inhibitor, XAV939, was used. For the negative control, no inhibitor is added to the assay mix.
The Tankyrase 2 (TNKS2) enzyme on ice was thawed. The tube containing the enzyme was spun briefly to recover the full content of the tube. The amount of TNKS2 enzyme required for the assay was calculated and the enzyme was diluted to 0.5 ng/μL with 1×PARP assay buffer with DTT. 16) The final concentration of TNKS2 enzyme in the assay was 2 nM. The reaction was initiated by adding 10 μL of diluted TNKS2 enzyme to each well designated “Positive Control” and “Test Inhibitor.” To each well designated as “Blank,” 10 μL of 1×PARP assay buffer with DTT was added. The plate was incubated at room temperature for 1 hour. The plate was washed three times with 100 μL of PBST buffer and the plate was tapped onto a clean paper towel.
1) Streptavidin-HRP was diluted 1:50 in Blocking buffer (purchased from BPS Bioscience) 3.50 μL of diluted Streptavidin-RP was added to each well and incubated for 30 minutes at room temperature. The plate was washed three times with 100 μL of PBST buffer and tapped onto a clean paper towel. Just before use, 1 volume of ELISA ECL Substrate A and 1 volume of ELISA ECL Substrate B were mixed on ice; and 100 μL was added to each well. Immediately, the plate was read in a luminometer or microtiter-plate reader capable of reading chemiluminescence. The “Blank” value was subtracted from all other values.

Compound	pIC50
O=c1[nH]c(-c2ccc(-c3ccc(B(O)O)cc3)cc2)nc2c1CSCC2 [Compound 10, (4′-(4-oxo-3,5,7,8-tetrahydro-4H-thiopyrano[4,3-d]pyrimidin-2-yl)-[1,1′-biphenyl]-4-yl)boronic acid]	8.48
COC(=O)NCCOC(C)(C)c1ccc(-c2nc3c(c(=O)[nH]2)CSCC3)cc1 [Compound 18, methyl (2-((2-(4-(4-oxo-3,5,7,8-tetrahydro-4H-thiopyrano[4,3-d]pyrimidin-2-yl)phenyl)propan-2-yl)oxy)ethyl)carbamate]	8.40
O=c1[nH]c(-c2ccc(B(O)O)cc2)nc2c1CSCC2 [Compound 1, (4-(4-oxo-3,5,7,8-tetrahydro-4H-thiopyrano[4,3-d]pyrimidin-2-yl)phenyl)boronic acid]	7.59
CC(C)(OCCO)c1ccc(-c2nc3c(c(=O)[nH]2)CSCC3)cc1 [Compound 8, 2-(4-(2-(2-hydroxyethoxy)propan-2-yl)phenyl)-3,5,7,8-tetrahydro-4H-thiopyrano[4,3-d]pyrimidin-4-one]	8.50
O=c1[nH]c(-c2ccc(-c3ccc(Br)nc3)cc2)nc2c1CSCC2 [Compound 7, 2-(4-(6-bromopyridin-3-yl)phenyl)-3,5,7,8-tetrahydro-4H-thiopyrano [4,3-d]pyrimidin-4-one]	8.30
